Columns and labels:
A1AdoR = biological target: T1, A1AdoR (Homo sapiens, UniProt P30542); assay: Adenosine receptor binding assay, A1 ([3H]-DPCPX); conditions: ratio A1 vs A2A binding
T1 construct: purchased PerkinElmer ES-010-M400UA
T1 sequence (P30542 1-326): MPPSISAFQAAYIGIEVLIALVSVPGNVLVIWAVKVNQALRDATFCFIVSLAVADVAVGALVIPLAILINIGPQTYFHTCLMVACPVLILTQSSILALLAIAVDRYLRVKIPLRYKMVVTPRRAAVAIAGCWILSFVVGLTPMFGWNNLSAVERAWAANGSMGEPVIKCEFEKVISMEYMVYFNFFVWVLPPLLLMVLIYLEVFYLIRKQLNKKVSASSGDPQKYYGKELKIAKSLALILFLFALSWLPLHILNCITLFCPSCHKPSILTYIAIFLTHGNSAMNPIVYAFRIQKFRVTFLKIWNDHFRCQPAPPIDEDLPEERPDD
In short: (§1)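 Filtration binding on membranes: A2A in HEK-293 with 6 nM [3H]-CGS-21680, Tris pH 7.4, 2 h; A2B in HEK-293 with 8 nM [3H]-DPCPX, HEPES pH 7.0, 1 h; A1 in CHO-K1 with 1 nM [3H]-DPCPX, HEPES pH 7.4, 1 h; room temperature. 8-point dilutions; IC50 converted to Ki (Cheng–Prusoff).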

phospho-CREB (pCREB) = assay: Human whole blood phospho-CREB (pCREB) assay / modulation of pCREB in human immune cells; type: cell-based; conditions: agonist (NECA or CGS-21680)-stimulated human blood cells
Procedure: Fresh human blood samples are derived from healthy volunteers and processed in heparin tubes. 67.5 ul of whole blood is aliquoted to each well in a 96-well plate and incubated at 37° C. for 30 min. Testing compounds are diluted with DMSO to make 8-point 3-fold serial dilution and 3.5 ul (20×) is added to each well. Cells are incubated with the compounds at 37° C. for 30 min. NECA (5 uM) is then added to each well and cells are incubated for 30 min at 37° C. Following the stimulation, cells are transferred to a 96-well deep well plates and fixed with 1 ml/well of lyse/fix buffer (1×) (BD Biosciences #558049) with vigorous shake at 37° C. for 10 min. Cells are centrifuged at 600 g for 6 min and washed twice with PBS, followed by addition of 800 ul/well Perm buffer III (BD Biosciences #558050). Cells are then pelleted at 600 g for 6 min, washed with FACS buffer (PBS+0.2% BSA+1 mM EDTA) and stained for 40 min at room temperature in the dark with an antibody cocktail containing PE mouse anti-human CD3 (BD Biosciences #555333, 1 ul/well), FITC mouse anti-human CD4 (BD Biosciences #5555346, 1 ul/well), PerCP-Cy™5.5 mouse anti-human CD8 (BD Biosciences #565310, 1 ul/well) and phospho-CREB (Ser133) (87G3) Rabbit mAb (Alexa Fluor® 647 Conjugate, CST #14001, 0.5 ul/well). Cells are then washed twice with FACS buffer and acquired on a flow cytometer (Sony Cell Sorter SH800). Data were analyzed using FlowJo version 9. The level of CREB phosphorylation from unstimulated cells (Low control: LC) and NECA-stimulated cells (High control: HC) are determined as mean fluorescent intensity (MFI) in stimulated condition/mean fluorescent intensity in unstimulated condition. % Inhibition is calculated as (MFI of HC-MFI of assay well)/(MFI of HC-MFI of LC)×100%. Data are analyzed and IC50s calculated using GraphPad Prism 5 and the model “log(inhibitor) vs. response—Variable slope”.
The A2A receptor is known to mediate CREB phosphorylation.
Venous blood from healthy volunteers, all of whom signed an informed consent approved by the Ethics Committee (FOR—UIC-BV-050-01-01 ICF HBS HD Version 5.0), was obtained via ImmuneHealth (Centre Hospitalier Universitaire Tivoli, La Louviere,
15 Belgium). Peripheral blood cells were treated with A2AR agonists CGS-21680 or NECA (Sigma-Aldrich, Diegem, Belgium), and a serial dilution of compounds disclosed herein (all used stock solutions at 10 mM in DMSO). All dilutions were prepared in RPMI1640 medium (with UltraGlutamine; Lonza, Venders, Belgium), and cells were incubated with compounds in a 37° C. humidified tissue culture incubator with 5% CO2.
After stimulation, cells were fixed and permeabilized, followed by intracellular staining using mouse anti-human pCREB antibodies (Clone J151-21; BD Biosciences) at room temperature. Data were acquired using an LSRFortessa flow cytometer (BD Biosciences) and analyzed using FlowJo software (FlowJo, LLC, Ashland, Oregon).

human A2A AdoR = biological target: T2, human A2A AdoR (Homo sapiens, UniProt P29274); assay: Adenosine receptor binding assay, A2A ([3H]-CGS-21680); conditions: membranes of HEK-293 cells expressing human A2A AdoR; read-out: hA2A IC50
T2 construct: purchased PerkinElmer RBHA2AM400UA
T2 sequence (P29274 whole entry): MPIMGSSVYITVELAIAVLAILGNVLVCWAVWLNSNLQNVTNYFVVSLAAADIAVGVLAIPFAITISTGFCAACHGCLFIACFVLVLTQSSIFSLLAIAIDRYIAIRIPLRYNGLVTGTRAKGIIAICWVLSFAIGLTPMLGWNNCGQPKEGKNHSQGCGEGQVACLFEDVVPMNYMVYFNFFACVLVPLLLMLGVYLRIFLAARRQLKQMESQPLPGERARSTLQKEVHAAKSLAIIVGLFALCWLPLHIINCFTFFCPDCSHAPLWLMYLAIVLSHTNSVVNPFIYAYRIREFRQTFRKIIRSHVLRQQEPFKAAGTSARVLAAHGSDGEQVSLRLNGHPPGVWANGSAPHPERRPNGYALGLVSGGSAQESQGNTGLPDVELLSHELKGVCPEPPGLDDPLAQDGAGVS
In short: as §1

human A2B AdoR = biological target: T3, human A2B AdoR (Homo sapiens, UniProt P29275); assay: Adenosine receptor binding assay, A2B ([3H]-DPCPX); conditions: ratio A2B vs A2A binding
T3 construct: purchased PerkinElmer ES-013-M400UA
T3 sequence (P29275 1-332): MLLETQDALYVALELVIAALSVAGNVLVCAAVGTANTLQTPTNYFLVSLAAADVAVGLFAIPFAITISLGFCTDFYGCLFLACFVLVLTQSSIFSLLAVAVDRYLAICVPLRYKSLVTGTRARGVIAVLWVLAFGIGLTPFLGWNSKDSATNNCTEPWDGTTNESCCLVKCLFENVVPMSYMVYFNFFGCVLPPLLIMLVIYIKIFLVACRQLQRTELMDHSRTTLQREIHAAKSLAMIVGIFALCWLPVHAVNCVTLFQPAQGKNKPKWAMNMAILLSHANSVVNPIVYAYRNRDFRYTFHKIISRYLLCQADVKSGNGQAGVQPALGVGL
Procedure: Membranes prepared from CHO-K1 cells stably expressing Human AiAdoR (ES-010-M400UA), HEK-293 cells stably expressing human A2A AdoR (RBHA2AM400UA), HEK-293 cells stably expressing human A2B AdoR (ES-013-M400UA) and CHO-K1 cells stably expressing Human A3 AdoR (ES-012-M400UA) were purchased from PerkinElmer (Waltham, Mass., USA) and stored at −80° C. until use. Binding assays are performed using the radioligands. The final concentrations are as follows: [3H]-DPCPX (PerkinElmer, NET974001MC) at 1 nM for A1AdoR; [^3H]-CGS-21680 (PerkinElmer, NET1021250UC) at 6 nM for A2AAdoR, [3H]-DPCPX (PerkinElmer, NET974001MC) at 8 nM for A2BAdoR; [^3H]-HEMADO (ARC, Cat: ART1456) at 1 nM for A3AdoR. Testing compounds are diluted with DMSO to make 8-point 4-fold serial dilution. Nonspecific binding (Low control: LC) and total binding (High control: HC) are determined in the presence or absence of saturated cold ligand. Specific binding is calculated by subtracting nonspecific binding from total binding. All assays are performed in a final volume of 200 μl containing 1 μl of the test compound in DMSO, 100 μl of membrane preparation, and 99 μl of the radioligand in assay buffer (A1AdoR: 25 mM HEPES pH 7.4, 5 mM MgCl2, 1 mM CaCl2), 100 mM NaCl; A2AAdoR: 50 mM Tris HCl pH 7.4, 10 mM MgCl2, 1 mM EDTA; A2BAdoR: 50 mM HEPES pH 7.0, 5 mM MgCl2, 1 mM EDTA; A3AdoR: 25 HEPES pH 7.4, 10 mM MgCl2, 1 mM CaCl2), 0.5% BSA). The incubation is performed at room temperature with shaking at 300 rpm for 1 hour for A1AdoR, A2BAdoR and A3AdoR and 2 hours for A2AAdoR. After the incubation, the assay mixture is filtered through 96 GF/C filter plates (Perkin Elmer #6005174) using Perkin Elmer Filtermate Harvester, and then washed four times with ice-cold washing buffer (A1AdoR: 25 mM HEPES pH 7.4, 5 mM MgCl2, 1 mM CaCl2), 100 mM NaCl; A2AAdoR: 50 mM Tris HCl pH 7.4, 154 mM NaCl; A2BAdoR: 50 mM HEPES pH 6.5, 5 mM MgCl2, 1 mM EDTA, 0.2% BSA; A3AdoR: 50 mM Tris HCl pH 7.4). The filters are dried for 1 hour at 50° C. and [^3H] trapped on filter counted for radioactivity in Perkin Elmer Microscint 20 cocktail (#6013329) using Perkin Elmer MicroBeta2 Reader. The results are expressed as a percent inhibition of the control radioligand specific binding calculated using the following equation: % Inhibition=(1−(Assay well-Average_LC)/(Average_HC−Average_LC))×100%. Data are analyzed and IC50 is calculated using GraphPad Prism 5 and the model “log(inhibitor) vs. response—Variable slope”. The binding affinity of the compounds is determined by using the Cheng and Prusoff equation Ki=IC50/(1+[radioligand]/Kd).

Row | SMILES | A1/A2A Selectivity (A1AdoR) | EC50 (phospho-CREB (pCREB)) [µM] | IC50 (human A2A AdoR) [µM] | A2B/A2A Selectivity (human A2B AdoR)
1 | Nc1nc2c(c(Cl)nn2CCN2CCN(c3cc(-c4ncco4)ccc3F)CC2)c2nc(-c3ccccn3)nn12 | c (greater than 0 but less than or equal to 100) | 0.02 to 0.1 | ≤ 0.02 | a (greater than 1000)
2 | Cc1noc2cc(F)c(N3CCN(CCn4nc(Cl)c5c4nc(N)n4nc(-c6ccccn6)nc54)CC3)cc12 | b (greater than 100 but less than or equal to 1000) | ≤ 0.02 | ≤ 0.02 | a (greater than 1000)
3 | Cc1noc2cc(F)c(N3CCN(CCn4c(C#N)c(Cl)c5c4nc(N)n4nc(-c6ccccn6)nc54)CC3)cc12 | a (greater than 1000) | 0.02 to 0.1 | ≤ 0.02 | a (greater than 1000)
4 | Cc1noc2cc(F)c(N3CCN(CCn4c(C(N)=O)c(Cl)c5c4nc(N)n4nc(-c6ccccn6)nc54)CC3)cc12 [5-amino-9-chloro-7-[2-[4-(6-fluoro-3-methyl-1,2-benzoxazol-5-yl)piperazin-1-yl]ethyl]-2-(2-pyridyl)-[1,2,4]triazolo[1,5-c]pyrrolo[3,2-e]pyrimidine-8-carboxamide] | a (greater than 1000) | ≤ 0.02 | ≤ 0.02 | a (greater than 1000)
5 | COCCOc1ccc(N2CCN(CCn3c(C(N)=O)cc4c3nc(N)n3nc(-c5ccccn5)nc43)CC2)cc1 | c (greater than 0 but less than or equal to 100) | > 0.1 | ≤ 0.02 | a (greater than 1000)
6 | Cc1c(C(=O)O)n(CCN2CCN(c3cc(-c4ncco4)ccc3F)CC2)c2nc(N)n3nc(-c4ccccn4)nc3c12 | a (greater than 1000) | ≤ 0.02 | ≤ 0.02 | a (greater than 1000)
7 | NC(=O)c1cc2c(nc(N)n3nc(-c4ccccn4)nc23)n1CCN1CCN(c2ccc(OCC(=O)O)cc2)CC1 | b (greater than 100 but less than or equal to 1000) | 0.02 to 0.1 | ≤ 0.02 | a (greater than 1000)
8 | N#Cc1cc2c(nc(N)n3nc(-c4ccccn4)nc23)n1CCN1CCN(c2cc(-c3ncco3)ccc2F)CC1 | a (greater than 1000) | > 0.1 | ≤ 0.02 | a (greater than 1000)
9 | Cc1noc2cc(F)c(N3CCN(CCn4c(C#N)cc5c4nc(N)n4nc(-c6ccccn6)nc54)CC3)cc12 | c (greater than 0 but less than or equal to 100) | > 0.1 | ≤ 0.02 | a (greater than 1000)
10 | NC(=O)c1cc2c(nc(N)n3nc(-c4ccccn4)nc23)n1CCN1CCN(c2cc(-c3ncco3)ccc2F)CC1 | b (greater than 100 but less than or equal to 1000) | 0.02 to 0.1 | ≤ 0.02 | a (greater than 1000)
11 | Nc1nc2c(cc(C(=O)O)n2CCN2CCN(c3cc(-c4ncco4)ccc3F)CC2)c2nc(-c3ccccn3)nn12 [5-amino-7-(2-(4-(2-fluoro-5-(oxazol-2-yl)phenyl)piperazin-1-yl)ethyl)-2-(pyridin-2-yl)-7H-pyrrolo[3,2-e][1,2,4]triazolo[1,5-c]pyrimidine-8-carboxylic acid] | b (greater than 100 but less than or equal to 1000) | > 0.1 | ≤ 0.02 | a (greater than 1000)
